Values quoted from earlier work in patent publication US6579860B1, “Interleukin-6 production inhibitors” (Toray Industries, Inc., priority 1998, dated 2003).

System: mouse macrophage cells
Conditions: Pannanen N. et al., Pharmaceutical Research 12(6)
In the case of O=P(O)(O)C(Cl)(Cl)P(=O)(O)O [clodronate], the “effect on cytokine production/release” value is given as “suppresses cytokine production”. In the case of CC(O)(P(=O)(O)O)P(=O)(O)O [etidronate], the “effect on cytokine production/release” value is listed as “does not have such an effect”. In the case of NCCC(O)(P(=O)(O)O)P(=O)(O)O [pamidronate], the “effect on cytokine production/release” value is given as “enhances release of cytokine”.
